Experimental data: ChEMBL document CHEMBL5696442, “Discovery of type II inhibitors of TGFβ-activated kinase 1 (TAK1) and mitogen-activated protein kinase kinase kinase kinase 2 (MAP4K2)” (J Med Chem, 2015)

How the values were obtained:
[1] = biological target: Activated CDC42 kinase 1 (Homo sapiens) (UniProt Q07912); experiment: Inhibition of ACK Lys1 labeling site in human A-375 cells at 0.05 uM by KiNativ Profiling analysis relative to control; format: cell-based
[2] = biological target: Tyrosine-protein kinase CSK (Homo sapiens, UniProt P41240); experiment: Inhibition of CSK (unknown origin) ACT labeling site by KiNativ Profiling analysis
[3] = biological target: Serine/threonine-protein kinase 10 (Homo sapiens) (UniProt O94804); experiment: Inhibition of LOK Lys1 labeling site harbouring NKETGALAAAKVIETK in human A-375 cells at 0.5 uM by KiNativ Profiling analysis relative to control; format: cell-based
[4] = biological target: T1, Serine/threonine-protein kinase Nek9 (Homo sapiens) (UniProt Q8TD19); experiment: Inhibition of NEK9 Lys1 labeling site harbouring TEDDSLVVWKEVDLTR in human A-375 cells at 0.05 uM by KiNativ Profiling analysis relative to control; format: cell-based
T1 sequence (whole entry): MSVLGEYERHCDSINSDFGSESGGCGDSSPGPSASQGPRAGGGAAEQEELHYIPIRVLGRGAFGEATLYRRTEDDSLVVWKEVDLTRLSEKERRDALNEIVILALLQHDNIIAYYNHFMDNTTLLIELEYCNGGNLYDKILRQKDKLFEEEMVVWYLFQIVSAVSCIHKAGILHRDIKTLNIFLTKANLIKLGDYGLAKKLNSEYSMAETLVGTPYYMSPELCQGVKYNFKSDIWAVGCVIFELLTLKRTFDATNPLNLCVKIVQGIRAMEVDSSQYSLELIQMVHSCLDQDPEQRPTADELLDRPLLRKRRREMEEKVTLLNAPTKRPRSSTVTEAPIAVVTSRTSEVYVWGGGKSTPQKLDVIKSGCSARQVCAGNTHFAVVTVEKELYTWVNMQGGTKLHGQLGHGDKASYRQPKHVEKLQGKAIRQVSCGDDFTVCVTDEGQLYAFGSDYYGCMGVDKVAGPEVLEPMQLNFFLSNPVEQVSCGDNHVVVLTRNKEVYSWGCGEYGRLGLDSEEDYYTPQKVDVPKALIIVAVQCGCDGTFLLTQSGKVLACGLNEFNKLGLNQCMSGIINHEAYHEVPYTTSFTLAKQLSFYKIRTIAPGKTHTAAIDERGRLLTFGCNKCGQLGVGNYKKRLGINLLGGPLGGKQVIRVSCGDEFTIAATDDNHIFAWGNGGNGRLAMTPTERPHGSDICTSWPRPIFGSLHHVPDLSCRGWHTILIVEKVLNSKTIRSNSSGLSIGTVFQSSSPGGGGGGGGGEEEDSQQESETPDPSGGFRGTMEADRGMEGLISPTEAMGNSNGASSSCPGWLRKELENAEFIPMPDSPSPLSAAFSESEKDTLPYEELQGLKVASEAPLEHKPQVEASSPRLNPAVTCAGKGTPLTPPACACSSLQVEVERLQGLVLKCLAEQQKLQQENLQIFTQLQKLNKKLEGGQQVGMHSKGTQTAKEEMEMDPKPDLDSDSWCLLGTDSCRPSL

[5] = biological target: Cyclin-dependent kinase 16 (Homo sapiens) (UniProt Q00536); experiment: Inhibition of PFTAIRE1 Lys1 labeling site in human A-375 cells at 0.5 uM by KiNativ Profiling analysis relative to control; format: cell-based
[6] = biological target: Interferon-induced, double-stranded RNA-activated protein kinase (Homo sapiens) (UniProt P19525); experiment: Inhibition of PKR Lys2 labeling site in human A-375 cells at 0.5 uM by KiNativ Profiling analysis relative to control; format: cell-based
[7] = biological target: T2, Phosphatidylinositol 5-phosphate 4-kinase type-2 gamma (Homo sapiens) (UniProt Q8TBX8); experiment: Inhibition of PIP4K2C ATP labeling site harbouring VKELPTLKDMDFLNK in human A-375 cells at 0.05 uM by KiNativ Profiling analysis relative to control; format: cell-based
T2 sequence (whole entry): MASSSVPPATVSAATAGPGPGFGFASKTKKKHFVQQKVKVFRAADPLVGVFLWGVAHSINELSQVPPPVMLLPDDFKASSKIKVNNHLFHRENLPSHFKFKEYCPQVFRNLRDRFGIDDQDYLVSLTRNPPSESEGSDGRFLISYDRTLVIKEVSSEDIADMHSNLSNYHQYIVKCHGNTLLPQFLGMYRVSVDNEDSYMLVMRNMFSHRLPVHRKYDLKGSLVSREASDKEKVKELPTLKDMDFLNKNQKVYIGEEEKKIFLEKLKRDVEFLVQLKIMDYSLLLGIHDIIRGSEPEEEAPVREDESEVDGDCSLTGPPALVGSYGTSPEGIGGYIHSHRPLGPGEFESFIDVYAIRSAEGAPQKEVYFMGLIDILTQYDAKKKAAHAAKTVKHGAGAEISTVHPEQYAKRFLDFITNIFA

[8] = biological target: Serine/threonine-protein kinase WNK2 (Homo sapiens) (UniProt Q9Y3S1); experiment: Inhibition of Wnk2 Lys2 labeling site in human A-375 cells at 0.05 uM by KiNativ Profiling analysis relative to control; format: cell-based
[9] = biological target: T3, Mitogen-activated protein kinase kinase kinase 3 (Homo sapiens) (UniProt Q99759); experiment: Inhibition of MAP3K3 Lys1 labeling site in human A-375 cells at 0.5 uM by KiNativ Profiling analysis relative to control; format: cell-based
T3 sequence (whole entry): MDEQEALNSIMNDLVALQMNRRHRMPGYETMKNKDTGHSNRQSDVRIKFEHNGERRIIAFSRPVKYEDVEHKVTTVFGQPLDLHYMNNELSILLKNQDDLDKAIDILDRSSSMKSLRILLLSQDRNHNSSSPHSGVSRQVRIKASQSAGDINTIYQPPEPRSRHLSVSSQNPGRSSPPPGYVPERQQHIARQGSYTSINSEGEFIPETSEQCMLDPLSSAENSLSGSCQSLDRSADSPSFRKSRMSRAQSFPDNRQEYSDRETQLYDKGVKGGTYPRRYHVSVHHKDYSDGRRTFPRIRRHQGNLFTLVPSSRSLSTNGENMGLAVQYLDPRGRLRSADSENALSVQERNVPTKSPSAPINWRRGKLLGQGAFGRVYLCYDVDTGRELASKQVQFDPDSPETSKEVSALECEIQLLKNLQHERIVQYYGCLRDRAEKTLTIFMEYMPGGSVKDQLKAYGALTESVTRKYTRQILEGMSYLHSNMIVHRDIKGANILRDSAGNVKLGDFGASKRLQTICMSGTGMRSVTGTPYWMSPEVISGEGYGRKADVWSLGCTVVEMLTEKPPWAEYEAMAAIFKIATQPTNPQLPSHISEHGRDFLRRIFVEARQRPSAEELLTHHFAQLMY

[10] = biological target: Serine/threonine-protein kinase MARK2 (Homo sapiens) (UniProt Q7KZI7); experiment: Inhibition of MARK2 Lys2 labeling site harbouring FIVHRDLKAENLLLDADMNIK in human A-375 cells at 0.05 uM by KiNativ Profiling analysis relative to control; format: cell-based
[11] = biological target: Cyclin-dependent kinase 17 (Homo sapiens) (UniProt Q00537); experiment: Inhibition of PCTAIRE2 Lys1 labeling site harbouring SKLTENLVALKEIR in human A-375 cells at 5 uM by KiNativ Profiling analysis relative to control; format: cell-based
Sequence of Cyclin-dependent kinase 17 (Homo sapiens) (Q00537 whole entry, looked up): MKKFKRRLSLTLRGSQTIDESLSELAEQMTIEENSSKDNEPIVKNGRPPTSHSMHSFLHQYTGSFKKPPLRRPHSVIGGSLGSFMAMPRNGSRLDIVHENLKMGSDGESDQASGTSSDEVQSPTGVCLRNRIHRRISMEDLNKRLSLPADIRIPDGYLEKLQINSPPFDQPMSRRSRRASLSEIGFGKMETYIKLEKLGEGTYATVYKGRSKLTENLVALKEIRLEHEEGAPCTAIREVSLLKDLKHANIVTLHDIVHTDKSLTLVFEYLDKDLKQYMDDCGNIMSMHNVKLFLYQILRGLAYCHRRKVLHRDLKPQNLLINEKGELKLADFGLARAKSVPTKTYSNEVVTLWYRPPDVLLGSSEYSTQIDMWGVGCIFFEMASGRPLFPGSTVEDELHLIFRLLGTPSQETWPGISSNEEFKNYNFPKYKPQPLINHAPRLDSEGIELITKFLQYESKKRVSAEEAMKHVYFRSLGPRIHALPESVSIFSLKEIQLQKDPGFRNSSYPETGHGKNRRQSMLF

Sequence of Serine/threonine-protein kinase WNK2 (Homo sapiens) (Q9Y3S1 whole entry): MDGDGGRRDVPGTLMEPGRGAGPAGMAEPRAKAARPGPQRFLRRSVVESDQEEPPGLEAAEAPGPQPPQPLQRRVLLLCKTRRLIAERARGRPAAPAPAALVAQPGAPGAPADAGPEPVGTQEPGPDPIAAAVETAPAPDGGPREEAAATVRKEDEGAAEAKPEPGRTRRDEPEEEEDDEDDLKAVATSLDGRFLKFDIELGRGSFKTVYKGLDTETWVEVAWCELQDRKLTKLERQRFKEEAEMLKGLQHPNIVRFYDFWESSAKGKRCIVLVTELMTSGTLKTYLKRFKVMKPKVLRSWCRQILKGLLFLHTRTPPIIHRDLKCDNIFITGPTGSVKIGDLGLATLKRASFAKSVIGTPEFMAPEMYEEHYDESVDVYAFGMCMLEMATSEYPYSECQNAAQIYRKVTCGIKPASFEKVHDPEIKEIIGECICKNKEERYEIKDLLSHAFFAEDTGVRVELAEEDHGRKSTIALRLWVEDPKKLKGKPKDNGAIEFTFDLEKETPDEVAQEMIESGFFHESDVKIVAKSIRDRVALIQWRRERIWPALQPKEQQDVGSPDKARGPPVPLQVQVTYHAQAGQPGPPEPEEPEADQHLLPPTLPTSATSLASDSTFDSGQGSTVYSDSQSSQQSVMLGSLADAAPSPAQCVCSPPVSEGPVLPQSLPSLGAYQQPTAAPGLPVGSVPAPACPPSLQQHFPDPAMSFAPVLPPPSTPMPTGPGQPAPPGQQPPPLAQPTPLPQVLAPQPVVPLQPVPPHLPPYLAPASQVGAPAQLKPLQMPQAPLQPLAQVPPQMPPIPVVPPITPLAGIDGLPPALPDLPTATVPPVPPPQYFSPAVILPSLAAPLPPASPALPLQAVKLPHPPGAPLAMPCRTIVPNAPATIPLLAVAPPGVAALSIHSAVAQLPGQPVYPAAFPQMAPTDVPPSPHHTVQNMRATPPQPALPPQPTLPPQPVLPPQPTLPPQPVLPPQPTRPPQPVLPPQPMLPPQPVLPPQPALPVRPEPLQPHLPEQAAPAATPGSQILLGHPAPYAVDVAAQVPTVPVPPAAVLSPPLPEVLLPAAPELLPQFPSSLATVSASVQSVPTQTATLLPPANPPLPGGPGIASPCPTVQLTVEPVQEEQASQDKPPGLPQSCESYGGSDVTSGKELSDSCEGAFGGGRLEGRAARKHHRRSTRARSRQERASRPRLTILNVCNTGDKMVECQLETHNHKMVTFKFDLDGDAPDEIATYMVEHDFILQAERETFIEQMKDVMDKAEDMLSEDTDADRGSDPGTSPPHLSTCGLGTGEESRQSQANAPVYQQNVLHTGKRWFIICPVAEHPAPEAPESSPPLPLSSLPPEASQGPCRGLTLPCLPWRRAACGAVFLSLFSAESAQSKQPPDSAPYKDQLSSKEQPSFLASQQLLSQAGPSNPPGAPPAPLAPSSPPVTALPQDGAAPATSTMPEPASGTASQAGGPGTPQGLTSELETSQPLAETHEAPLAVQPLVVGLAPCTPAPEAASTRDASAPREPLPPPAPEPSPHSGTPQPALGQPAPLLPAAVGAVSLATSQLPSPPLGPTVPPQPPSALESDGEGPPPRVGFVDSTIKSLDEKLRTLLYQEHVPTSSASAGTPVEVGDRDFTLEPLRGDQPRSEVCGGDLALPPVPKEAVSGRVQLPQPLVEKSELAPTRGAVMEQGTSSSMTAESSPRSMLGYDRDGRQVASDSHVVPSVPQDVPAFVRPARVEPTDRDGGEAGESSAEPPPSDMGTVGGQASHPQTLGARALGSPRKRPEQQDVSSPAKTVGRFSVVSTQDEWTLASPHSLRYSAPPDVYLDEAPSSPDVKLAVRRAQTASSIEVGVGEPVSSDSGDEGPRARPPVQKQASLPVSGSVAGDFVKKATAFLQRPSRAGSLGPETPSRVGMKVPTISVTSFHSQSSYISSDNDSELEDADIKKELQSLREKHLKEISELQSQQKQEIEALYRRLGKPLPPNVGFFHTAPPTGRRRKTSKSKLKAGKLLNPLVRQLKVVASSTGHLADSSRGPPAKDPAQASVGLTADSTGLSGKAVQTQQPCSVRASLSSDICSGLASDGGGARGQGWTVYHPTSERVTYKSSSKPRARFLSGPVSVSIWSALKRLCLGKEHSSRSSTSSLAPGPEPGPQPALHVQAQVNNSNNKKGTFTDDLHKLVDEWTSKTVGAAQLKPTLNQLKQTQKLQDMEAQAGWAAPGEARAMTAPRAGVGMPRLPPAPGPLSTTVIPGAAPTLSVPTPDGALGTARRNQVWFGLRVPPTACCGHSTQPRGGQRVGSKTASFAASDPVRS
Sequence of Tyrosine-protein kinase CSK (P41240 whole entry): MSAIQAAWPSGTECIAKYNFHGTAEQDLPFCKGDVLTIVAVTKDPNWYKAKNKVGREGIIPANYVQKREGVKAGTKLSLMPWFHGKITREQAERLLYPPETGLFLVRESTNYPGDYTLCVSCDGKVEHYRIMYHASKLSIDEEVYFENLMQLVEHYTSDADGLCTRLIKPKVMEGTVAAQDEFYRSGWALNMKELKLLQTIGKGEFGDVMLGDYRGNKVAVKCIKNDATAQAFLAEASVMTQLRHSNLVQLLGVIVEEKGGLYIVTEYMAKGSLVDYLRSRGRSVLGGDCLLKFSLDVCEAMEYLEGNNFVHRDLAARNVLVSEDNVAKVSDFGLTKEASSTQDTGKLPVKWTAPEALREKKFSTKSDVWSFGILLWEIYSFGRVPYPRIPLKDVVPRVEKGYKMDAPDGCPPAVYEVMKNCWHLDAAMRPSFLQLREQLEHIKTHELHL
Sequence of Activated CDC42 kinase 1 (Homo sapiens) (Q07912 whole entry, looked up): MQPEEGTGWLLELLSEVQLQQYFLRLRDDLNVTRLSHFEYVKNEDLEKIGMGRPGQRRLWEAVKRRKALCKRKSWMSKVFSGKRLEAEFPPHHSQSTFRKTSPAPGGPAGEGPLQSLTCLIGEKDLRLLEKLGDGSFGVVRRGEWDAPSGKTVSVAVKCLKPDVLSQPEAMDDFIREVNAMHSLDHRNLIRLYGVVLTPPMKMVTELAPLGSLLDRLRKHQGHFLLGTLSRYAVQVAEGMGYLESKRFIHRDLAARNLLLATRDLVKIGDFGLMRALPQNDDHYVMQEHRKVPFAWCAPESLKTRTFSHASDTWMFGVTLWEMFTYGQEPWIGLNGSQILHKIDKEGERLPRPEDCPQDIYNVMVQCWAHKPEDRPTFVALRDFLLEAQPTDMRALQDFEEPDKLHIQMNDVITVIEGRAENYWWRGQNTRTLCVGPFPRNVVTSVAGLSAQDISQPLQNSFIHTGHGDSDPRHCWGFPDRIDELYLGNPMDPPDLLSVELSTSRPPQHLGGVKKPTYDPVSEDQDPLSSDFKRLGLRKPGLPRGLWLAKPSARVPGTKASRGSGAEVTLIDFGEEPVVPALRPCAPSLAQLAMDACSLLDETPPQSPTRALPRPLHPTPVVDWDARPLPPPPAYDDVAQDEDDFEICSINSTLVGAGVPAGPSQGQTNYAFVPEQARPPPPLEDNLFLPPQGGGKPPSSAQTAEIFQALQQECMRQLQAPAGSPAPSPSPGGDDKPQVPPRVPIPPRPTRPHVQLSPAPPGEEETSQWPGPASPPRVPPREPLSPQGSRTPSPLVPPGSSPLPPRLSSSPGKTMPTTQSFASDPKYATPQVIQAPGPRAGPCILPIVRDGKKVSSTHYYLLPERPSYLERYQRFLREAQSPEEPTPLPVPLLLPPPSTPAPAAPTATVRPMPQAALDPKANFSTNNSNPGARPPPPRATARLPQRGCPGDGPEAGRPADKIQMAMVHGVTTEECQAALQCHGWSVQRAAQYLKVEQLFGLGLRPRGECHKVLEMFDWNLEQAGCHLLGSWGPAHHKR
Sequence of Interferon-induced, double-stranded RNA-activated protein kinase (Homo sapiens) (P19525 whole entry): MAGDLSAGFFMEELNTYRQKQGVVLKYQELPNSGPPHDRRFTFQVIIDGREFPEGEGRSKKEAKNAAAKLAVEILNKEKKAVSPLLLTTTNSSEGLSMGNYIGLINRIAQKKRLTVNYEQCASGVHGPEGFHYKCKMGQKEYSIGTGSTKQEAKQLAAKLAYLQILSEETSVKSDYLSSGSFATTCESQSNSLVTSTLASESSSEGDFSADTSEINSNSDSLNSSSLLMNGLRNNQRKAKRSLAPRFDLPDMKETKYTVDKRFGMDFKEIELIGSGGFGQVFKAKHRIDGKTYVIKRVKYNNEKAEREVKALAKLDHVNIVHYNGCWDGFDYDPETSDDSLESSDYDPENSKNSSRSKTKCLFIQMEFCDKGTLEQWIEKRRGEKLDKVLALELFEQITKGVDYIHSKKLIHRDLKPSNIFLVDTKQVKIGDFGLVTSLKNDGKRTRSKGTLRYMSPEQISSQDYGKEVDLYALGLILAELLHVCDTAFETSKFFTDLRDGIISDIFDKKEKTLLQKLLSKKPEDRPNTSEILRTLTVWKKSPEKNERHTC

SMILES | inhibition [1] [%] | IC50 [2] [nM] | inhibition [3] [%] | inhibition [4] [%] | inhibition [5] [%] | inhibition [6] [%] | inhibition [7] [%] | inhibition [8] [%] | inhibition [9] [%] | inhibition [10] [%] | inhibition [11] [%]
CCN1CCN(Cc2ccc(NC(=O)c3ccc(C)c(Oc4ccnc5[nH]ccc45)c3)cc2C(F)(F)F)CC1 | 15.6 | 56.4 | 74.7 | 18.9 | 41.3 | -5.5 | -1.1 | -3.5 | 42 | 11.3 | 73.3
CCN1CCN(Cc2ccc(NC(=O)c3ccc(C)c(/C=C/c4cnc5[nH]ccc5c4OC)c3)cc2C(F)(F)F)CC1 | 34.3 | 80.9 | 61.8 | -2.6 | 11.9 | -9.6 | -7.3 | 7.1 | 33.4 | 14.2 | 24.3
